Experimental findings from patent US20090176732A1, “PROTECTED NUCLEOTIDE ANALOGS” (Alios BioPharma Inc., priority 2007, published 2009) are described below.

In series [1] the test system is AVA5 cell line. The settings on record: concentration giving 2-fold depression of neutral red dye uptake vs untreated cultures; daily treatment for three days, assessed at 72 hours; ± S.D. Here is the method:
Compounds were added to dividing cultures daily for three days. […] Intracellular HCV RNA levels and cytotoxicity were assessed 72 hours after treatment.
Quadruplicate cultures for HCV RNA levels and cytoxicity (on 96-well plates) were used. A total of 12 untreated control cultures, and triplicate cultures treated with α-interferon (concentrations of: 10 IU/mL, 3.3 IU/mL, 1.1 IU/mL and 0.37 IU/mL) and 2′C-Me-C (concentrations of: 30 μM, 10 μM, 3.3 μM and 1.1 μM) served as assay controls.
HCV RNA levels in the treated cultures are expressed as a percentage of the mean levels of RNA detected in untreated cultures. The absorbance of the internalized dye at […] (A510) was used for quantitative analysis.
Compounds were dissolved in 100% tissue culture grade DMSO (Sigma, Inc.) at 10 mM. Aliquots of test compounds sufficient for one daily treatment were made in individual tubes and all material was stored at −20° C. For the test, the compounds were suspended into culture medium at room temperature, and immediately added to the cell cultures. Compounds were analyzed separately in two groups with separate assay controls. The concentrations of the test compounds were run at concentrations of 10 μM, 3.3 μM, 1.1 μM and 0.37 μM.

Series [2] concerns HCV RNA-replicating cell line, AVA5 (genotype 1b, subgenomic replicon). In words: HCV replicon assay, intracellular HCV RNA levels by blot hybridization. Format: cell-based, HCV genotype 1b. The settings on record: for EC50: concentration giving 2-fold depression of HCV RNA vs untreated cultures; for EC50 / EC90: normalized to β-actin RNA, daily treatment for three days, assessed at 72 hours, ± S.D.; for EC90: concentration giving 10-fold depression of HCV RNA vs untreated cultures; for Antiviral activity (in words): summary of the Table 1 results in the text. (In general: Replicon systems follow genome replication, usually without infectious particles.)
Description: Antiviral activity of the test compounds was assessed (Okuse, et al., Antivir. Res. (2005) 65:23) in the stably HCV RNA-replicating cell line, AVA5 (genotype 1b, subgenomic replicon, Blight, et al., Sci. (2000) 290:1972). Compounds were added to dividing cultures daily for three days. […] Intracellular HCV RNA levels and cytotoxicity were assessed 72 hours after treatment.
Intracellular HCV RNA levels were measured using a conventional blot hybridization method, in which HCV RNA levels are normalized to the levels of β-actin RNA in each individual culture (Okuse, et al., Antivir. Res. (2005) 65:23). Cytotoxicity was measured using an established neutral red dye uptake assay (Korba and Gerin, Antivir. Res. (1992) 19:55; Okuse, et al., Antivir. Res. (2005) 65:23). HCV RNA levels in the treated cultures are expressed as a percentage of the mean levels of RNA detected in untreated cultures. The absorbance of the internalized dye at 510 nM (A510) was used for quantitative analysis.
Values presented (±standard deviations [S.D.]) were calculated by linear regression analysis using data combined from all treated cultures. S.D. was calculated using the standard error of regression generated from the linear regression analyses (QuattroPro™).

By CC50 is commonly meant the concentration that lowers cell viability or growth by half. Read a low CC50 as harm at low concentration. What is called EC50 is the midpoint of the concentration-response curve. High values mean lower potency in that assay, low ones higher potency in that assay. As a reminder, the EC90 is the concentration needed for an effect of 90%. High values mean weaker potency, low ones greater potency. Compound `CCOC(=O)C(COC(C)=O)(COP(=O)(OC[C@H]1O[C@@H](n2cnc(C(N)=O)n2)[C@H](O)[C@@H]1O)OCC(COC(C)=O)(C(=O)OCC)C(=O)OCC)C(=O)OCC` [Compound 14, Ribavirin 5′-bis[3-acetyloxy-2,2-bis(ethoxycarbonyl)propyl]phosphate] returned a CC50 in series [1] of 9.7 ± 0.2 µM. Besides, in series [2], the EC50 worked out at 1.6 ± 0.2 µM, the EC90 was 4.4 ± 0.4 µM and the “Antiviral activity (in words)” value was “markedly more active compared to compound 12”.
On the same counts, the results for `COC(=O)[C@H](C)NP(=O)(OC[C@H]1O[C@@H](n2cnc(C(N)=O)n2)[C@H](O)[C@@H]1O)Oc1ccccc1` (some centres unmarked) [Compound 12] are more than 100 µM, more than 100 µM, more than 100 µM and “inactive”.
